The subject of one data set is 1.1B4 beta-cells. In words: Beta-cell proliferation, Ki-67 staining, 1.1B4. Type of data set: cell-based, human. The note with it: 1.1B4, 10^-8 and 10^-6 M, n = 3.
The subject of data set [1] is BRIN-BD11 beta-cells. In words: Beta-cell proliferation, Ki-67 staining, BRIN-BD11. Type of data set: cell-based, rodent. The note with it: BRIN BD11, 10^-8 and 10^-6 M, n = 3.
The subject of a further data set is DPP-4. In words: 50 mM triethanolamine/HCl. The note with it: 37°C, up to 8 hours.
Data set [2] relates to BRIN-BD11 beta-cells. In words: In vitro insulin secretion from BRIN-BD11 beta-cells. Type of data set: cell-based, rodent. The note with it: peptides 10^-12-10^-6 M, 20-minute incubation, insulin radioimmunoassay, n = 8, vs 16.7 mM glucose.
Data set [3] has as its system BRIN-BD11 beta-cells. In words: Protection against cytokine-induced apoptosis, TUNEL, BRIN-BD11. The note with it: n = 3. Type of data set: cell-based, rodent.

No end group written: not given here.

Here are results for three substances from PMC6580715 (Clinical Medicine Insights. Endocrinology and Diabetes, 2019).

For the substance “GLP-1: GLP-1 positive control (HAEGTFTSDVSSYLEGQAAKEFIAWLVKGR; ends and bridges not checked; UniProt P01275 98-127, looked up) [reference compound]”, the “beta-cell proliferation vs control cultures” value with 1.1B4 beta-cells and in the data set with BRIN-BD11 beta-cells [1] was “significantly (P < .05 to P < .001) increased” in each case.

In the case of “YPIKPEAPGEDK(PAL)SPEELNRYYASLRHYLNLVTRQRY”, in the data set with DPP-4, the fragment found entry is “PYY(3-36)(Lys^12PAL), 8 h”.

“YPIKPEAPGEDK(PAL)SPEELNRYYASLRHYLNLVTRQRY [PYY(1-36)(Lys^12PAL)]”: the “insulin secretion at 16.7 mM glucose (GSIS)” value in the data set on BRIN-BD11 beta-cells [2] is listed as “had no impact on GSIS”. The “beta-cell proliferation vs control cultures” value in the data set on 1.1B4 beta-cells is given as “significantly increased (P < .05 to P < .01) the proliferation of both beta-cell lines”. For the same substance, the “cytokine-induced apoptosis vs cytokine cocktail control” value is reported as “barring PYY(1-36)(Lys^12PAL) at 10^-8 M” in the data set with BRIN-BD11 beta-cells [3] (BRIN BD11, 10^-8 M only, cytokine cocktail); “offered some protection against apoptosis” in the data set on BRIN-BD11 beta-cells [3] (BRIN BD11, 10^-8 and 10^-6 M, cytokine cocktail (IL-1β, IFNγ, TNFα)). Moreover, the “protection against apoptosis compared with PYY(1-36)” value in the data set on BRIN-BD11 beta-cells [3] (BRIN BD11, same concentration, cytokine cocktail) is “significantly (P < .05 to P < .01) less efficacious”.
